This test in a line: Muscle relaxant activity in rat diaphragm assessed as inhibition of electrically-stimulated contraction. Type of test: functional.

With `C/C=C1/C[N+]2(C)[C@H]3C[C@@H]1[C@@](CO)(C(=O)OC)[C@@H]2Cc1c3[nH]c2cc(OC)ccc12` [11-METHOXY MACUSINE A], the Activity came out at 0.16 mg/kg.

The values are drawn from ChEMBL document CHEMBL1151295, “11-Methoxy-macusine A. A new quaternary alkaloid from Strychnos angolensis” (1983).
